From patent US20160067221A1, “USE OF ERGOTHIONEINE FOR INDUCING ACTIVITY OF NRF2 IN CELL” (China Medical University, priority 2014, published 2016)

Legend:
Assay type in all cases: cell-based, human
Nrf2 [1] = test: Western blot in Nrf2 knockdown HaCaT cells (siRNA transfection); details: Nrf2 siRNA transfected cells, 500 nM ergothioneine 24 hours
From the text: The Nrf2 is an important transcription factor, the downstream antioxidant enzymes are regulated by the Nrf2 transcription gene. To examine protective effects of the ergothioneine on the HaCaT cells indeed through the Nrf2 activation, we developed an Nrf2 gene knockdown model in the HaCaT cells by a siRNA transfection in this example. Then, the expression of the downstream antioxidant gene is observed to investigate whether the protective properties of the ergothioneine will be affected.
(§1) The siRNA transfection includes steps as follows. The HaCaT cells are seeded in a 6-well plate with 4×10^5 cells/well and then maintained at 37° C. in the humidified atmosphere of 5% CO2 untill the time of the transfection. The day after reaching 40-60% confluence, the culture medium is replaced with 1 mL of FBS-free and antibiotic-free culture medium in each well, and the HaCaT cells are transfected with a siNrf2 or a control siRNA by using Lipofectamine 2000 (Invitrogen, U.S.A.) for 4-6 hours. After the incubation for 4-6 hours, the HaCaT cells are washed with the culture medium supplemented with 10% FBS 2-3 times, and then cultured in the culture medium supplemented with 10% FBS for 12-16 hours.
After the siRNA transfection, the HaCaT cells are treated with 500 nM ergothioneine for 24 hours. After the ergothioneine treatment, the HaCaT cells are subjected to analyses of the protein express on of the Nrf2 in 1 hour post-treatment and the protein expressions of HO-1 γ-GCLC and NQO-1 in 4 hours post-treatment by the Western blot analysis. FIG. 13-(A) illustrates the effect of the ergothioneine on protein expression of the Nrf2 in Nrf2 knockdown HaCaT cells by using the siRNA transfection.

[2] = test system: Nrf2 knockdown HaCaT cells; test: MTT cell viability in siRNA-transfected HaCaT cells; details: 500 nM 24 hours, UVA 15 J/cm^2 4 hours
Experimental: as §1
The HaCaT cells are incubated with 500 nM ergothioneine for 24 hours after the siRNA transfection.

[3] = test system: Nrf2 knockdown HaCaT cells; test: ROS generation in siRNA-transfected HaCaT cells; details: 500 nM 24 hours
Experimental: as §1
We further measure the amount of ROS generation in the HaCaT cells treated with the ergothioneine prior to 15 J/cm^2 UVA irradiation. The HaCaT cells are incubated with 500 nM ergothioneine for 24 hours after the siRNA transfection. After the incubation, the HaCaT cells are treated with or without the UVA irradiation (15 J/cm^2) for 4 hours, and then the HaCaT cells are subjected to detect the ROS generation.

Nrf2 [4] = test: Western blot of Nrf2 signaling pathway associated proteins (Nrf2, Keap-1, HO-1, NQO-1, γ-GCLC)
Experimental: The effect of the ergothioneine on expressions of Nrf2 protein and downstream proteins of the HaCaT cells is monitored by the Western blot analysis. The detected downstream proteins are heme oxygenase-1 (HO-1) γ-glutamylcysteine ligase catalytic subunit (γ-GCLC) and NAD(P)H: quinone acceptor oxidoreductase 1 (NQO-1). The HaCaT cells are incubated with or without the ergothioneine for 1 hour or 4 hours, wherein the concentration of the ergothioneine is 125 nM, 250 nM and 500 nM, respectively. After incubation, the HaCaT cells are suspended in a lysis buffer to collect the proteins. FIG. 7 illustrates the effect of the ergothioneine on the expressions of the Nrf2 signaling pathway associated proteins of the HaCaT cells.
In addition, we examine the effect of the ergothioneine on the expressions of the Nrf2 and the Nrf2 pathway associated proteins of the HaCaT cells treated with the UVA irradiation. The HaCaT cells are incubated with or without the ergothioneine for 24 hours, wherein the concentration of the ergothioneine is 125 nM, 250 nM and 500 nM, respectively. After incubation, the HaCaT cells are exposed to the UVA (15 J/cm^2), and then cultured for 1 hour or 4 hours. Next, the HaCaT cells are suspended in the lysis buffer to collect the proteins, and the protein expressions are measured by the Western blot analysis. FIG. 8 illustrates the effect of the ergothioneine on the expressions of the Nrf2 signaling pathway associated proteins of the UVA-irradiated HaCaT cells. FIG. 8-(A) represents the Western blot analysis results of total Nrf2 and Keap-1 protein levels, wherein the HaCaT cells are pretreated with the ergothioneine (125-500 nM), and then exposed to the UVA for 1 hour. FIG. 8-(B) represents the Western blot analysis results of the HO-1 the NQO-1 and the γ-GCLC proteins, wherein the HaCaT cells are pretreated with the ergothioneine (125-500 nM), and then exposed to the UVA for 4 hour.

[5] = 125-500 nM 24 hours pretreatment, UVA 15 J/cm^2, 4 hours

C[N+](C)(C)[C@@H](Cc1c[nH]c(=S)[nH]1)C(=O)[O-] [ergothioneine, 2-mercapto histidine trimethylbetain]
expression of HO-1 (Nrf2 [1]): not shown the increased expression
expression of NQO-1 (Nrf2 [1]): not shown the increased expression
expression of γ-GCLC (Nrf2 [1]): not shown the increased expression
UVA-induced cell death ([2]; Nrf2 siRNA): unable to ameliorate the UVA-induced cell death
UVA-induced cell death ([2]; control siRNA): able to reduce a UVA-induced cell death
ROS generation ([3]; Nrf2 siRNA, UVA 15 J/cm^2): unable to decrease the ROS generation
ROS generation ([3]; control siRNA, UVA 15 J/cm^2, vs UVA alone): significantly reduced
Nrf2 expression (Nrf2/Keap-1 ratio) (Nrf2 [4]; 125-500 nM 24 hours pretreatment, UVA 15 J/cm^2, 1 hour): dramatically increases the Nrf2 expression
expression of HO-1 protein (Nrf2 [4]; [5]): also increased
expression of NQO-1 protein (Nrf2 [4]; [5]): also increased
expression of γ-GCLC protein (Nrf2 [4]; [5]): also increased
total Nrf2 protein level (Nrf2 [4]; 125-500 nM for 1 hour, no UVA, especially with 500 nM): increases the total Nrf2 protein level
expression of HO-1 protein (Nrf2 [4]; 125-500 nM for 4 hours, no UVA): also increased
expression of NQO-1 protein (Nrf2 [4]; 125-500 nM for 4 hours, no UVA): also increased
expression of γ-GCLC protein (Nrf2 [4]; 125-500 nM for 4 hours, no UVA): also increased
